# Patent publication US9322049B2, “Activation and activators of SirT6” (CORNELL UNIVERSITY, priority 2009, dated 2016)
# Columns and labels:
# [1] = target: T1, truncated SirT6 (deletion of N terminal 17 amino acids) (Homo sapiens, UniProt Q8N6T7); assay: Deacetylation rate of truncated SirT6 with suramin or single stranded DNA; format: biochemical; details: 50 μM suramin or 100 ng/μl single stranded DNA; 800 μM NAD, 480 μM H3, 10 μM enzyme
# T1 construct: The truncated SIRT6 was cloned similarly with the full length SIRT6; poly-histidine (pET28a) (N); made in house; host or cells: E. coli BL21 Codon-plus RIPL
# T1 sequence (Q8N6T7 with tags, fused parts or gaps): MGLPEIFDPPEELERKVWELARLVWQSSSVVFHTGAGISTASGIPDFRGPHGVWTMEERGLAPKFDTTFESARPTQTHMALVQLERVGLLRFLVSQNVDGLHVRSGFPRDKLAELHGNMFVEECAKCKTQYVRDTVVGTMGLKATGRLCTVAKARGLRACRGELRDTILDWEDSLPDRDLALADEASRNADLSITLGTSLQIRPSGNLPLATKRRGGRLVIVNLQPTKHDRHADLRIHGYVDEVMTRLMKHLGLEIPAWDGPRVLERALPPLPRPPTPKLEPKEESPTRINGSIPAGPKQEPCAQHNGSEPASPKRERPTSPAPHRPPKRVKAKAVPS
# Excerpt: The deacetylation rate of different truncated SirT6 was normalized to the rate of full length SirT6 for the comparison.
# The truncated SIRT6 was cloned similarly with the full length SIRT6. The primers used in the cloning of different truncated SIRT6 are the following: SIRT6Δ2-7 Forward 5′ GCTAGC ATGGGGCTGTCGCCGTACGCG 3′ (SEQ ID NO: 4); SIRT6Δ2-12 Forward 5′ GCTAGC ATG […] 3′ (SEQ ID NO: 5); SIRT6Δ2-18 Forward 5′ GCTAGC ATGGGCCTCCCGGAGATCTTCGAC 3′ (SEQ ID NO: 6); SIRT6Δ2-51 Forward 5′ 5′ GCTAGC ATGACGGGTGCCGGCATCAGCACT 3′ (SEQ ID NO: 7). The common reverse primer is 5′[…] 3′ (SEQ ID NO: 8). The truncated SIRT6 was amplified by PCR reaction. The PCR product was then ligated into pSTblue-1 (Novagen). After digestion with NheI and BamHI, the fragment containing SIRT6 gene was ligated into pET28a vector (Novagen). The SIRT6 truncated sequence in pET28a plasmid was confirmed by DNA sequencing, and the plasmid was then transformed into BL21Codon-plus RIPL cells (Stratagene). The protein expression and purification were the same as the full length SIRT6 as described above.
# SirT1 = target: T2, SirT1 (Homo sapiens, UniProt Q96EB6); assay: SirT1 deacetylation, Km of H3 with and without ssDNA; format: biochemical; details: 100 ng/μl ssDNA
# T2 sequence (Q96EB6 1-747): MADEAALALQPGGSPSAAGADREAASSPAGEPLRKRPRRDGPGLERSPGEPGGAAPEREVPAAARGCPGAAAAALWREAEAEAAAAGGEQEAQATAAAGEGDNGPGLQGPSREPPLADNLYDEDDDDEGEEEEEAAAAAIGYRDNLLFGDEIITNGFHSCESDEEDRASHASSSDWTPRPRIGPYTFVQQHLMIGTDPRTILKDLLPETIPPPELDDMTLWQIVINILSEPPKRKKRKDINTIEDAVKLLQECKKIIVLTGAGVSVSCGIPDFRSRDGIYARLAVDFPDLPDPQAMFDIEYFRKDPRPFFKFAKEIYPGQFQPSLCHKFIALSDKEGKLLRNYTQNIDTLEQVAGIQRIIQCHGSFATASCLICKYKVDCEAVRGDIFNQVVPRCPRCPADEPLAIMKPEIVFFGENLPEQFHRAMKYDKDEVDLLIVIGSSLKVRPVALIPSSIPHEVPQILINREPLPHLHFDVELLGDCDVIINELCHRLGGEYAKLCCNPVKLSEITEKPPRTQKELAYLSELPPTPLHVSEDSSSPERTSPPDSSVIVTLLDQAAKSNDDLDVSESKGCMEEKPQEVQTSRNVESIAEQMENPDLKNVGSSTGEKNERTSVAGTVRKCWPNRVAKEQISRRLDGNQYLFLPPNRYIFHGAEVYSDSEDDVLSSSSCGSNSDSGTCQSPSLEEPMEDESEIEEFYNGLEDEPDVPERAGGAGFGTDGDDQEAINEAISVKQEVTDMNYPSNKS
# Excerpt: The quantified data were fit into Michaelis-Menten equation to get Km of H3.
substance,measurement,setting,value
"ssDNA: ssDNA 5′ GGGGATCCATGAAGATGAGCTTTGCGTTGACT 3′ (SEQ ID NO: 9), Integrated DNA Technologies (DNA, backbone and methylation of C not given here)",Activation of truncated SirT6 deacetylation,[1],lost of activation
same,Deacetylation activity of SirT1,SirT1,not activated
